Results on 27 compounds are retold here after patent US20150232452A1, “NOVEL RAF KINASE INHIBITORS” (Ruga Corporation, priority 2012, published 2015).

Assay [1] deals with Braf V600E (recombinant V600E mutated B-RAF) (Homo sapiens, UniProt P15056, V600E). In words: In vitro assay for determining inhibition of mutant B-RAF kinase. The class given is biochemical. The following applies: 10 nM recombinant V600E mutated B-RAF, 1 μM MEK (K97R) as substrate. How it is done:
In Vitro Assay for Determining Inhibition of B-RAF Kinase or Mutant B-RAF Kinase
Solutions of varying concentrations of test compounds or vehicle are added to 10 nM recombinant V600E mutated B-RAF proteins incubated in the presence of different concentrations of ATP and 1 μM MEK (K97R) as substrate, as previously described (Wilhelm, S. M., et al., Cancer Res., 64: 7099-7109, 2004; Mason, C. S., et al., EMBO J. 18: 2137-2148, 1999; Marais, R., et al., J. Biol. Chem., 272: 4378-4383, 1997). At least triplicate determinations for each individual test compound concentration are made and data is plotted as mean±standard deviation relative to the control vehicle.

Assay [2] has as its system A375 cells (V600E activated B-RAF). The assay is described as follows: In vitro assay for tumor cell growth (MTT, 72 hours incubation). The class given is cell-based. The following applies: Homo sapiens, A-375, 72 h, growth inhibition of A375 cells, unit inferred. How it is done:
In Vitro Assays for Tumor Cell Growth
Cell lines are obtained from the American Type Tissue Culture Collection (Maryland, USA) and cultured in media containing heat-inactivated 10% fetal bovine serum. Cell cultures are also maintained in 10 U/mL penicillin, 100 μg/mL streptomycin and 2 mM glutamine. At least triplicate determinations for each individual test compound concentration are made and data is plotted as mean±standard deviation relative to the control vehicle.

Sequence of Braf V600E (recombinant V600E mutated B-RAF) (P15056 whole entry V600E): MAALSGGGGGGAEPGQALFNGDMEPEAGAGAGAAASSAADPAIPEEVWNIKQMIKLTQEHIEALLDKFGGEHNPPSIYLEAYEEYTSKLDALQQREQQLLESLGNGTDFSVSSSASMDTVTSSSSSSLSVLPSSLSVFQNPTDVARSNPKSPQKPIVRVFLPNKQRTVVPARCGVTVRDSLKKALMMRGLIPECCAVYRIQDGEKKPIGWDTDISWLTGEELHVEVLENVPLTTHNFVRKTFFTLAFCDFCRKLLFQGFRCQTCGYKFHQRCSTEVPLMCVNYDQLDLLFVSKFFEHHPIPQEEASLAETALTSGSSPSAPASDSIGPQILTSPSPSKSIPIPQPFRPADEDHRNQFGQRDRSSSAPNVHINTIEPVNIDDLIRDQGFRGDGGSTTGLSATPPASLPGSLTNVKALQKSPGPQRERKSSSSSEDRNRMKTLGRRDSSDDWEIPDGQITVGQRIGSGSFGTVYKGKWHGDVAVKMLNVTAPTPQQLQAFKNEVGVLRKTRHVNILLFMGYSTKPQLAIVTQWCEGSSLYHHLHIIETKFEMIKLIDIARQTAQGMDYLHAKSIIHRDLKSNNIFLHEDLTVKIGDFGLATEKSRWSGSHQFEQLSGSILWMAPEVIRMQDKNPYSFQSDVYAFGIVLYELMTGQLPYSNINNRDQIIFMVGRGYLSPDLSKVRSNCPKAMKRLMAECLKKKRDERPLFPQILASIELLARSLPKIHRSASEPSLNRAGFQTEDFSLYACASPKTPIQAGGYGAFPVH

`CCn1cc(-c2cccc(NC(=O)Nc3ccc(C(F)(F)F)cc3)c2)c(-c2ccnc(N)n2)n1` [Example 28, 1-(3-(3-(2-aminopyrimidin-4-yl)-1-ethyl-1H-pyrazol-4-yl)phenyl)-3-(4-(trifluoromethyl)phenyl)urea]: the IC50 in assay [1] amounted to 3.5 nM; in assay [2], 362 nM. Consider `CCn1cc(-c2cccc(NC(=O)Nc3ccc(I)cc3F)c2)c(-c2ccncc2)n1` [Example 17, 1-(3-(1-ethyl-3-(pyridin-4-yl)-1H-pyrazol-4-yl)phenyl)-3-(2-fluoro-4-iodophenyl)urea], for which the half-maximal inhibitory concentration (IC50) in assay [2] turned out to be 166 nM. Regarding `CCn1cc(-c2cccc(NC(=O)Nc3ccc(C(C)(C)C)cc3)c2)c(-c2ccncc2)n1` [Example 4, 1-(4-(tert-butyl)phenyl)-3-(3-(1-ethyl-3-(pyridin-4-yl)-1H-pyrazol-4-yl)phenyl)urea], the IC50 in assay [1] amounted to 6.53 nM; in assay [2] it was 506 nM. Regarding `CCn1cc(-c2cccc(NC(=O)Nc3ccc(C)cc3)c2)c(-c2ccncc2)n1` [Example 5, 1-(3-(1-ethyl-3-(pyridin-4-yl)-1H-pyrazol-4-yl)phenyl)-3-(p-tolyl)urea], the IC50 in assay [1] was found to be 1.61 nM; in assay [2], 815 nM. As for `CCn1cc(-c2cccc(NC(=O)Nc3ccc(Br)c(F)c3)c2)c(-c2ccnc(N)n2)n1` [Example 27, 1-(3-(3-(2-aminopyrimidin-4-yl)-1-ethyl-1H-pyrazol-4-yl)phenyl)-3-(4-bromo-3-fluorophenyl)urea], it took 571 nM to reach half-maximal inhibition in assay [2] (IC50).

As to `CCn1cc(-c2cccc(NC(=O)Nc3ccc(I)cc3)c2)c(-c2ccncc2)n1` [Example 10, 1-(3-(1-ethyl-3-(pyridin-4-yl)-1H-pyrazol-4-yl)phenyl)-3-(4-iodophenyl)urea], the IC50 turned out to be 2.2 nM in assay [1] and 49 nM in assay [2]. In assay [2], `CCn1cc(-c2cccc(NC(=O)Nc3cccc(I)c3)c2)c(-c2ccncc2)n1` [Example 20, 1-(3-(1-ethyl-3-(pyridin-4-yl)-1H-pyrazol-4-yl)phenyl)-3-(3-iodophenyl)urea] showed a half-maximal inhibitory concentration (IC50) of 2080 nM.

Regarding `CC(C)(C)c1nc(-c2ccnc(N)n2)c(-c2cccc(NC(=O)Nc3ccc(C(F)(F)F)cc3)c2F)s1` [Example 2, 1-(3-(4-(2-aminopyrimidin-4-yl)-2-(tert-butyl)thiazol-5-yl)-2-fluorophenyl)-3-(4-(trifluoromethyl)phenyl)urea], the concentration for half-maximal inhibition (IC50) in assay [1] was 3980 nM; in assay [2], over 10000 nM. As to `CCn1cc(-c2cccc(NC(=O)Nc3ccc(Cl)cc3)c2)c(-c2ccncc2)n1` [Example 16, 1-(4-chlorophenyl)-3-(3-(1-ethyl-3-(pyridin-4-yl)-1H-pyrazol-4-yl)phenyl)urea], the IC50 stood at 2.31 nM in assay [1] and 272 nM in assay [2]. Turning to `CCn1cc(-c2cccc(NC(=O)Nc3cccc(F)c3)c2)c(-c2ccncc2)n1` [Example 14, 1-(3-(1-ethyl-3-(pyridin-4-yl)-1H-pyrazol-4-yl)phenyl)-3-(3-fluorophenyl)urea], the half-inhibitory concentration (IC50) in assay [1] was determined as 39.3 nM. `CCn1cc(-c2cccc(NC(=O)Nc3ccccc3Cl)c2)c(-c2ccncc2)n1` [Example 13, 1-(2-chlorophenyl)-3-(3-(1-ethyl-3-(pyridin-4-yl)-1H-pyrazol-4-yl)phenyl)urea]: the IC50 in assay [1] was 58.7 nM. For the compound `CCn1cc(-c2cccc(NC(=O)Nc3ccc(I)c(F)c3)c2)c(-c2ccncc2)n1` [Example 19, 1-(3-(1-ethyl-3-(pyridin-4-yl)-1H-pyrazol-4-yl)phenyl)-3-(3-fluoro-4-iodophenyl)urea], 42 nM corresponded to half-maximal inhibition in assay [2] (IC50).

With `CC(C)(C)n1cc(-c2cccc(NC(=O)Nc3ccc(C(F)(F)F)cc3)c2)c(-c2ccncc2)n1` [Example 25, 1-(3-(1-(tert-butyl)-3-(pyridin-4-yl)-1H-pyrazol-4-yl)phenyl)-3-(4-(trifluoromethyl)phenyl)urea], the 50% inhibitory concentration (IC50) in assay [1] was determined as 1600 nM. Turning to `CCn1cc(-c2cccc(NC(=O)Nc3ccc(F)c(C(F)(F)F)c3)c2)c(-c2ccncc2)n1` [Example 8, 1-(3-(1-ethyl-3-(pyridin-4-yl)-1H-pyrazol-4-yl)phenyl)-3-(4-fluoro-3-(trifluoromethyl)phenyl)urea], the IC50 was 4.31 nM in assay [1] and 2540 nM in assay [2].

With `CCn1cc(-c2cccc(NC(=O)Nc3ccc(Br)cc3F)c2)c(-c2ccncc2)n1` [Example 18, 1-(4-bromo-2-fluorophenyl)-3-(3-(1-ethyl-3-(pyridin-4-yl)-1H-pyrazol-4-yl)phenyl) urea], in assay [2], the IC50 was determined as 541 nM. As to `CCn1cc(-c2cccc(NC(=O)Nc3ccc(Br)c(F)c3)c2)c(-c2ccncc2)n1` [Example 22, 1-(4-bromo-3-fluorophenyl)-3-(3-(1-ethyl-3-(pyridin-4-yl)-1H-pyrazol-4-yl)phenyl)urea], the midpoint of inhibition in assay [2], the IC50, lay at 83 nM.

With `CCn1cc(-c2cccc(NC(=O)Nc3ccc(C(C)C)cc3)c2)c(-c2ccncc2)n1` [Example 6, 1-(3-(1-ethyl-3-(pyridin-4-yl)-1H-pyrazol-4-yl)phenyl)-3-(4-isopropylphenyl)urea], the 50% inhibitory concentration (IC50) in assay [1] amounted to 1.18 nM; in assay [2] it was 449 nM. With `CCn1cc(-c2cccc(NC(=O)Nc3ccc(Cl)c(C(F)(F)F)c3)c2)c(-c2ccncc2)n1` [Example 9, 1-(4-chloro-3-(trifluoromethyl)phenyl)-3-(3-(1-ethyl-3-(pyridin-4-yl)-1H-pyrazol-4-yl)phenyl)urea], the IC50 was found to be 3.01 nM in assay [1] and 1780 nM in assay [2]. For `CCn1cc(-c2cccc(NC(=O)Nc3ccccc3F)c2)c(-c2ccncc2)n1` [Example 15, 1-(3-(1-ethyl-3-(pyridin-4-yl)-1H-pyrazol-4-yl)phenyl)-3-(2-fluorophenyl)urea], the IC50 in assay [1] is 53.8 nM.

Regarding `CC(C)n1cc(-c2cccc(NC(=O)Nc3ccc(I)c(F)c3)c2)c(-c2ccncc2)n1` [Example 24, 1-(3-fluoro-4-iodophenyl)-3-(3-(1-isopropyl-3-(pyridin-4-yl)-1H-pyrazol-4-yl)phenyl)urea], the IC50 in assay [2] was 233 nM.

Turning to `CCn1cc(-c2cccc(NC(=O)Nc3ccc(C(F)(F)F)cc3)c2)c(-c2ccncc2)n1` [Example 3, 1-(3-(1-ethyl-3-(pyridin-4-yl)-1H-pyrazol-4-yl)phenyl)-3-(4-(trifluoromethyl)phenyl)urea], the figures for the IC50 in assay [1] and in assay [2] were 0.72 nM and 202 nM, respectively.

As to `CCn1cc(-c2cccc(NC(=O)Nc3cccc(C(F)(F)F)c3)c2)c(-c2ccncc2)n1` [Example 7, 1-(3-(1-ethyl-3-(pyridin-4-yl)-1H-pyrazol-4-yl)phenyl)-3-(3-(trifluoromethyl)phenyl)urea], the results for the IC50 in assay [1] and in assay [2] were 4.44 nM and 1750 nM, respectively.

As to `CCn1cc(-c2cccc(NC(=O)Nc3ccc(Cl)cc3Cl)c2)c(-c2ccncc2)n1` [Example 12, 1-(2,4-dichlorophenyl)-3-(3-(1-ethyl-3-(pyridin-4-yl)-1H-pyrazol-4-yl)phenyl)urea], the results for the IC50 in assay [1] and in assay [2] were 6.39 nM and 1370 nM, respectively. Compound `CCn1cc(-c2cccc(NC(=O)Nc3ccc(Br)cc3)c2)c(-c2ccncc2)n1` [Example 21, 1-(4-bromophenyl)-3-(3-(1-ethyl-3-(pyridin-4-yl)-1H-pyrazol-4-yl)phenyl)urea] came in with a half-inhibitory concentration (IC50) in assay [2] of 85 nM. Consider `CCn1cc(-c2cccc(NC(=O)Nc3cccc(C)c3)c2)c(-c2ccncc2)n1` [Example 11, 1-(3-(1-ethyl-3-(pyridin-4-yl)-1H-pyrazol-4-yl)phenyl)-3-(m-tolyl)urea], for which the concentration for half-maximal inhibition (IC50) in assay [1] came to 4.98 nM; in assay [2], 3470 nM. For `CC(C)n1cc(-c2cccc(NC(=O)Nc3ccc(C(F)(F)F)cc3)c2)c(-c2ccncc2)n1` [Example 23, 1-(3-(1-isopropyl-3-(pyridin-4-yl)-1H-pyrazol-4-yl)phenyl)-3-(4-(trifluoromethyl)phenyl)urea], the 50% inhibitory concentration (IC50) was 6 nM in assay [1] and 1730 nM in assay [2]. Take `CC(C)(C)c1nc(-c2ccnc(N)n2)c(-c2cccc(NC(=O)Nc3ccc(C(F)(F)F)cc3)c2)s1` [Example 1, 1-(3-(4-(2-aminopyrimidin-4-yl)-2-(tert-butyl)thiazol-5-yl)phenyl)-3-(4-(trifluoromethyl)phenyl)urea]: the IC50 in assay [1] was 225 nM; in assay [2], over 10000 nM.

The IC50 is the concentration needed to halve the response being measured.
